The term IC50 denotes the concentration needed to halve the response being measured. A low value points to greater potency.

The structures appear in SMILES notation.

For this test, the target named is T1, human TLR9 (Homo sapiens, UniProt Q9NR96).
T1 construct: host or cells: HEK-Blue cells
T1 sequence (Q9NR96 26-1032): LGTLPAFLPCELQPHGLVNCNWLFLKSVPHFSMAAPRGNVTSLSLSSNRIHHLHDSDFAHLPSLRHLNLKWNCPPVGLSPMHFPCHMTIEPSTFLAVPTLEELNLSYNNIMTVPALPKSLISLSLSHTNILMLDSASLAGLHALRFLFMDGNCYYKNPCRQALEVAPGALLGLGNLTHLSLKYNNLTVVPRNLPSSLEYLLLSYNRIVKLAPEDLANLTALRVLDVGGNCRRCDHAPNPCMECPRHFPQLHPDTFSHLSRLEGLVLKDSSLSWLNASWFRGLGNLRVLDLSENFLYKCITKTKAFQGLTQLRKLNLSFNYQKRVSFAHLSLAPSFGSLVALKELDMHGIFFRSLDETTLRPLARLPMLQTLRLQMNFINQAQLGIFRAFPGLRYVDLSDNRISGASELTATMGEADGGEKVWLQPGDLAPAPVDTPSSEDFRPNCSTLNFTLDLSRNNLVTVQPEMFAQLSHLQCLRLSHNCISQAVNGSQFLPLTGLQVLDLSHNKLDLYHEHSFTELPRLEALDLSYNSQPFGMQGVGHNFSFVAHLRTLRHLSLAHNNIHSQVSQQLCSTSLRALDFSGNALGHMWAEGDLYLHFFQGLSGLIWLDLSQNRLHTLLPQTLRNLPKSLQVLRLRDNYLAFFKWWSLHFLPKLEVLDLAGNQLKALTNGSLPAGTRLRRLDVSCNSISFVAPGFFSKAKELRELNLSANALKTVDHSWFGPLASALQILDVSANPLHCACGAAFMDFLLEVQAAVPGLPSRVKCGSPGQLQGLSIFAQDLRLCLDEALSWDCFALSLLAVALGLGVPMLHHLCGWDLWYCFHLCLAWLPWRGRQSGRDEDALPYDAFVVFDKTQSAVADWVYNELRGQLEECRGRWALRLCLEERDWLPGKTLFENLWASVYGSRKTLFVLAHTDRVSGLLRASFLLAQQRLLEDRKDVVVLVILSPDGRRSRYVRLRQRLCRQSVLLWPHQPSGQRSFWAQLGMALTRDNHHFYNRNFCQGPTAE
Kind of test: TLR9 inhibition reporter assay (HEK-Blue SEAP). In kind it is cell-based. Particulars: HEK-Blue cells overexpressing human TLR9, ODN2006 5 nM, 22 hour incubation. The method in brief:
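Screening used HEK-Blue cells overexpressing one human TLR (7, 8 or 9) and an IFN-β minimal promoter–NF-κB/AP-1 SEAP construct. Stimulation lasted 22 h at 37 °C with receptor-specific agonist: gardiquimod, R848 or ODN2006 at 7.5 μM, 15.9 μM and 5 nM.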
(In general: Reporter assays use an easily measured gene product as a stand-in for the process of interest.)
In turn, `CCc1cc2c(cc1-c1cc(OC)c3ncnn3c1)[nH]c(=O)n2[C@H]1CC[C@@H](NC(C)C)CC1` [Example 167, 6-ethyl-1-((1s,4s)-4-(isopropylamino)cyclohexyl)-5-(8-methoxy-[1,2,4]triazolo[1,5-a]pyridin-6-yl)-1,3-dihydro-2H-benzo[d]imidazol-2-one] had an IC50 of 16.6 µM.

Molecule `COc1cc(-c2cc3[nH]c(=O)n([C@@H]4CCCN(C5COC5)C4)c3cc2C(C)C)cn2ncnc12` [Example 135, (R)-6-isopropyl-5-(8-methoxy-[1,2,4]triazolo[1,5-a]pyridin-6-yl)-1-(1-(oxetan-3-yl)piperidin-3-yl)-1,3-dihydro-2H-benzo[d]imidazol-2-one] returned an IC50 greater than 50 µM. The molecule `COc1cc(-c2cc3[nH]c(=O)n(C4CCN(C5COC5)CC4)c3cc2C(C)C)cn2ncnc12` [Example 157, 6-isopropyl-5-(8-methoxy-[1,2,4]triazolo[1,5-a]pyridin-6-yl)-1-(1-(oxetan-3-yl)piperidin-4-yl)-1,3-dihydro-2H-benzo[d]imidazol-2-one] displayed a concentration for half-maximal inhibition (IC50) greater than 50 µM. Take `COc1cc(-c2cc3[nH]c(=O)n([C@H]4CCCN(C(C)C)C4)c3cc2C(C)C)cn2ncnc12` [Example 120, (S)-6-isopropyl-1-(1-isopropylpiperidin-3-yl)-5-(8-methoxy-[1,2,4]triazolo[1,5-a]pyridin-6-yl)-1,3-dihydro-2H-benzo[d]imidazol-2-one]: the IC50 was found to be 1.94 µM. As for `COc1cc(-c2cc3[nH]c(=O)n(C4CCN(CC5CCOC5)CC4)c3cc2C(C)C)cn2ncnc12` (stereo not shown) [Example 160, 6-isopropyl-5-(8-methoxy-[1,2,4]triazolo[1,5-a]pyridin-6-yl)-1-(1-((tetrahydrofuran-3-yl)methyl)piperidin-4-yl)-1,3-dihydro-2H-benzo[d]imidazol-2-one], the figure is 14.3 µM; as for `COc1cc(-c2cc3[nH]c(=O)n([C@@H]4CCCN(CC5CCOCC5)C4)c3cc2C(F)(F)F)cn2ncnc12` [Example 112, (R)-5-(8-methoxy-[1,2,4]triazolo[1,5-a]pyridin-6-yl)-1-(1-((tetrahydro-2H-pyran-4-yl)methyl)piperidin-3-yl)-6-(trifluoromethyl)-1,3-dihydro-2H-benzo[d]imidazol-2-one], 12.7 µM. Molecule `CCC(CC)CN1CCC[C@@H](n2c(=O)[nH]c3cc(-c4cc(OC)c5ncnn5c4)c(C(F)(F)F)cc32)C1` [Example 117, (R)-1-(1-(2-ethylbutyl)piperidin-3-yl)-5-(8-methoxy-[1,2,4]triazolo[1,5-a]pyridin-6-yl)-6-(trifluoromethyl)-1,3-dihydro-2H-benzo[d]imidazol-2-one] returned an IC50 of 11.8 µM. In turn, `COCCN1CCC[C@@H](n2c(=O)[nH]c3cc(-c4cc(OC)c5ncnn5c4)c(C)cc32)C1` [Example 98, (R)-5-(8-methoxy-[1,2,4]triazolo[1,5-a]pyridin-6-yl)-1-(1-(2-methoxyethyl)piperidin-3-yl)-6-methyl-1,3-dihydro-2H-benzo[d]imidazol-2-one] showed an IC50 of 5.91 µM. The value for `COc1cc(-c2cc3[nH]c(=O)n([C@H]4CCCN(CC5CCOCC5)C4)c3cc2C(C)C)cn2ncnc12` [Example 125, (S)-6-isopropyl-5-(8-methoxy-[1,2,4]triazolo[1,5-a]pyridin-6-yl)-1-(1-((tetrahydro-2H-pyran-4-yl)methyl)piperidin-3-yl)-1,3-dihydro-2H-benzo[d]imidazol-2-one] was 7.72 µM; that for `COc1cc(-c2cc3[nH]c(=O)n([C@@H]4CCCN(CC(=O)N(C)C)C4)c3cc2C)cn2ncnc12` [Example 99, (R)-2-(3-(5-(8-methoxy-[1,2,4]triazolo[1,5-a]pyridin-6-yl)-6-methyl-2-oxo-2,3-dihydro-1H-benzo[d]imidazol-1-yl)piperidin-1-yl)-N,N-dimethylacetamide] was greater than 50 µM; that for `COc1cc(-c2cc3[nH]c(=O)n([C@@H]4CCCN(CC5CCC5)C4)c3cc2C(C)C)cn2ncnc12` [Example 140, (R)-1-(1-(cyclobutylmethyl)piperidin-3-yl)-6-isopropyl-5-(8-methoxy-[1,2,4]triazolo[1,5-a]pyridin-6-yl)-1,3-dihydro-2H-benzo[d]imidazol-2-one] was 6.46 µM. `CCCN1CCC(n2c(=O)[nH]c3cc(-c4cc(OC)c5ncnn5c4)c(C(C)C)cc32)CC1` [Example 155, 6-isopropyl-5-(8-methoxy-[1,2,4]triazolo[1,5-a]pyridin-6-yl)-1-(1-propylpiperidin-4-yl)-1,3-dihydro-2H-benzo[d]imidazol-2-one] yielded an IC50 of 11.9 µM. Against the preceding molecule, the IC50 is about 1.8-fold higher.

As to `COc1cc(-c2cc3[nH]c(=O)n([C@H]4CCCN(C5CCC5)C4)c3cc2C(C)C)cn2ncnc12` [Example 122, (S)-1-(1-cyclobutylpiperidin-3-yl)-6-isopropyl-5-(8-methoxy-[1,2,4]triazolo[1,5-a]pyridin-6-yl)-1,3-dihydro-2H-benzo[d]imidazol-2-one], it took 12.7 µM to reach half-maximal inhibition (IC50). Molecule `Cc1cc(-c2cc(C)c3ncnn3c2)cc2[nH]c(=O)n(C3CCN(CC(=O)N(C)C)CC3)c12` [Example 109, N,N-dimethyl-2-(4-(7-methyl-5-(8-methyl-[1,2,4]triazolo[1,5-a]pyridin-6-yl)-2-oxo-2,3-dihydro-1H-benzo[d]imidazol-1-yl)piperidin-1-yl)acetamide] came in with an IC50 of 14.3 µM. As for `CCCN1CCC[C@@H](n2c(=O)[nH]c3cc(-c4cc(OC)c5ncnn5c4)c(C(F)(F)F)cc32)C1` [Example 115, (R)-5-(8-methoxy-[1,2,4]triazolo[1,5-a]pyridin-6-yl)-1-(1-propylpiperidin-3-yl)-6-(trifluoromethyl)-1,3-dihydro-2H-benzo[d]imidazol-2-one], the figure is 13.4 µM; as for `COc1cc(-c2cc3[nH]c(=O)n([C@@H]4CCCN(CC5CCOCC5)C4)c3cc2C(C)C)cn2ncnc12` [Example 139, (R)-6-isopropyl-5-(8-methoxy-[1,2,4]triazolo[1,5-a]pyridin-6-yl)-1-(1-((tetrahydro-2H-pyran-4-yl)methyl)piperidin-3-yl)-1,3-dihydro-2H-benzo[d]imidazol-2-one], 7.81 µM.

These data come from patent US12187723B2 (BRISTOL-MYERS SQUIBB COMPANY, priority 2019, dated 2025).
